Laboratory results taken from patent US20050107289A1, “Anti-microbial peptides and compositions” (priority 2001, published 2005).
Where two headings read alike, the source gives them in different places. Values belong to the compound of their own block, whether it stands above or below them. Non-standard residues stand in square brackets, D forms with d. Residues, ends and D or L forms follow the SMILES beside them.

Key:
[1] = system: vancomycin-resistant Enterococus faecalis (VRE)(ATCC 51575); type: cell-based, Enterococcus faecalis; design: key to VRE (in vitro activity): peptide concentration in μg/ml (broth dilution assay); conditions: Table 9
Method: (§1) The antimicrobial activity of the peptides was determined using a broth dilution assay essentially as descried in the guidelines of the National Committee for […] (NCCLS) [National Committee for Clinical Laboratory Standards. Methods for dilution antimicrobial susceptibility tests for bacteria that grow aerobically. Fourth edition. Approved Standard (1997). Document M7-A4. […] The microdilution method has the advantages of requiring less amount of peptide for each assay and the possibility of multiple simultaneous inoculations and was used in most studies. Several of the strains of bacteria tested are further described in Table 3.
(§2) Preparation of peptide solutions. Stock peptide solutions were prepared in 5% DMSO in aq. sucrose (9%). Determination of peptide concentrations was done by quantitative HPLC analysis using known concentrations of internal standards and/or by measuring UV absorption of tryptophane-containing peptide solutions in H2O (λ=280 εTrp: 5690). Serial 2-fold dilutions were made in the above DMSO/aq. sucrose (9%) mixture with concentrations ranging approximately 400-2 μg/ml and aliquots were dispensed in test tubes (100 μl) for the macrodilution test or in microtiter plates (20 μl) for the microdilution assays.
(§3) Inoculum preparation. Overnight cultures of different microorganisms grown in suitable media were diluted 4000 times to an approximate inoculum size of 2.5×10^5 cfu/ml.
(§4) Macrodilution method. Macrodilution methods were performed using procedures similar to those described in the National Committee for Clinical Laboratory Standards. Methods for dilution antimicrobial susceptibility tests for bacteria that grow aerobically. Fourth edition. Approved Standard (1997). Document M7-A4. (NCCLS,Villanova, Pa., 1997). Two ml aliquots of the above inoculum were dispensed to test tubes containing different peptide solutions.
(§5) Microdilution method. Microdilution methods were performed using procedures similar to those described in the National Committee for Clinical Laboratory Standards. Methods for dilution antimicrobial susceptibility tests for bacteria that grow aerobically. Fourth edition. Approved Standard (1997). Document M7-A4.

[2] = system: S. aureus (MRSA) ATCC 33591; type: cell-based, Staphylococcus aureus; conditions: for MRSA (in vitro activity): Table 9; for S. aureus (MRSA) MIC: ATCC 33591
Method: as §1, §2, §3, §4, §5

[3] = system: murine red blood cells; experiment: Red blood cell hemolysis; type: cell-based, mouse
Method: Selectivity of cyclic peptides for bacterial over mammalian cells was evaluated by measuring red blood cell hemolytic activities as described in Tosteson, M. T. Holmes, S. J., Razin, M. and Tosteson, D. C. Melittin Lysis of Red Cells, J. Membrane Biol. 87, 35-44(1985). Heparinized murine blood was centrifuged at 1000×g for 10 minutes. The supernatant and the buffy coat were removed. Erythrocytes were washed three times with 0.9% saline solution and then resuspended to a concentration of 5% in saline containing 10% FBS (v/v). Red blood cells were then treated with serial dilutions of test peptides in a 96 well plate at 37° C. for 30 minutes. Control samples included a saline solution arid 1% Triton X-100 as 0 and 100% hemolysis, respectively. In some cases, mellitin was used as a further control. Mellitin is a linear peptide that is hemolytic against mammalian red blood cells in vitro at a concentration of about 10 μg/ml. Plates were centrifuged at 1000 g for 10 minutes. Aliquots of the supernatant were diluted 2 times with saline solution and the absorbance was measured at 560 nm.

[4] = media a: anti-microbial media-3 (AM-3)
[5] = media b: cation adjusted Meuller Hinton broth (MHBII)
[6] = media c: Brain Heart Infusion (BHI)

Structure (SMILES): CC(C)C[C@H]1NC(=O)[C@H](Cc2c[nH]c3ccccc23)NC(=O)[C@@H](Cc2ccccc2)NC(=O)[C@H](CCCCN)NC(=O)[C@@H](Cc2ccccc2)NC(=O)[C@H](Cc2c[nH]c3ccccc23)NC(=O)[C@@H](CC(C)C)NC(=O)[C@H](Cc2c[nH]c3ccccc23)NC1=O [SEQ ID NO:40, [KFWLWLWF]] (cyclo(K[dF]W[dL]W[dL]W[dF]))
VRE (in vitro activity) ([1]; media a: AM-3): >44
MRSA (in vitro activity) [2, 4]: 33
RBC Hemolysis (HD50) [3]: >44

Structure (SMILES): CC(C)C[C@H]1NC(=O)[C@H](Cc2c[nH]c3ccccc23)NC(=O)[C@@H](CO)NC(=O)[C@H](CCCCN)NC(=O)[C@@H](CO)NC(=O)[C@H](CCCNC(=N)N)NC(=O)[C@@H](CC(C)C)NC(=O)[C@H](Cc2c[nH]c3ccccc23)NC1=O [SEQ ID NO:84, [KSWLWLRS]] (cyclo(K[dS]W[dL]W[dL]R[dS]))
VRE (in vitro activity) ([1]; media a: AM-3): 12
MRSA (in vitro activity) [2, 4]: 9
RBC Hemolysis (HD50) [3]: >62

Structure (SMILES): CC(C)C[C@@H]1NC(=O)[C@@H](CCCNC(=N)N)NC(=O)[C@H](CCC(N)=O)NC(=O)[C@@H](CCCNC(=N)N)NC(=O)[C@H](Cc2c[nH]c3ccccc23)NC(=O)[C@@H](Cc2c[nH]c3ccccc23)NC(=O)[C@H](CC(C)C)NC(=O)[C@@H](Cc2c[nH]c3ccccc23)NC1=O [SEQ ID NO:69, [QRLWLWWR]] (cyclo(Q[dR]L[dW]L[dW]W[dR]))
VRE (in vitro activity) ([1]; media b: MHBII): 6.3
MRSA (in vitro activity) [2, 5]: 6.3
RBC Hemolysis (HD50) [3]: 35

Structure (SMILES): CC[C@H](C)[C@@H]1NC(=O)[C@@H](Cc2c[nH]c3ccccc23)NC(=O)[C@H](CCCCN)NC(=O)[C@@H](CCCNC(=N)N)NC(=O)[C@H](C)NC(=O)[C@@H](CC(C)C)NC1=O [SEQ ID NO:114, [KWILAR]] (cyclo(K[dW]I[dL]A[dR]))
VRE (in vitro activity) [1, 6]: >200
MRSA (in vitro activity) [2, 5]: 50
RBC Hemolysis (HD50) [3]: >200

Structure (SMILES): CC(C)C[C@H]1NC(=O)[C@H](CCCCN)NC(=O)[C@@H](CO)NC(=O)[C@H](CCCCN)NC(=O)[C@@H](CC(C)C)NC(=O)[C@H](Cc2c[nH]c3ccccc23)NC(=O)[C@@H](CC(C)C)NC(=O)[C@H](Cc2c[nH]c3ccccc23)NC1=O [SEQ ID NO:61, [KSKLWLWL]] (cyclo(K[dS]K[dL]W[dL]W[dL]))
VRE (in vitro activity) [1, 6]: 15
MRSA (in vitro activity) [2, 5]: 15
RBC Hemolysis (HD50) [3]: 125

Structure (SMILES): CC(C)C[C@H]1NC(=O)[C@H](Cc2ccc(O)cc2)NC(=O)[C@@H](CCCCN)NC(=O)[C@H](CO)NC(=O)[C@@H](CO)NC(=O)[C@H](CCCCN)NC(=O)[C@@H](CC(C)C)NC(=O)[C@H](Cc2ccc(O)cc2)NC1=O [SEQ ID NO:83, [KSSKYLYL]] (cyclo(K[dS]S[dK]Y[dL]Y[dL]))
VRE (in vitro activity) [1, 6]: 170
MRSA (in vitro activity) [2, 5]: 85
RBC Hemolysis (HD50) [3]: >340

Structure (SMILES): CC(C)C[C@H]1NC(=O)[C@H](C)NC(=O)[C@@H](CC(C)C)NC(=O)[C@H](CCCCN)NC(=O)[C@@H]([C@H](C)O)NC(=O)[C@H](CCCCN)NC(=O)[C@@H](CC(C)C)NC(=O)[C@H](C)NC1=O [SEQ ID NO:64, [KTKLALAL]] (cyclo(K[dT]K[dL]A[dL]A[dL]))
VRE (in vitro activity) [1, 6]: >160
MRSA (in vitro activity) [2, 5]: 80
RBC Hemolysis (HD50) [3]: >160

Structure (SMILES): CC(C)C[C@H]1NC(=O)[C@H](CCCCN)NC(=O)[C@@H](CO)NC(=O)[C@H](CCCCN)NC(=O)[C@@H](CC(C)C)NC(=O)[C@H](C(C)C)NC(=O)[C@@H](CC(C)C)NC(=O)[C@H](C(C)C)NC1=O [SEQ ID NO:60, [KSKLVLVL]] (cyclo(K[dS]K[dL]V[dL]V[dL]))
VRE (in vitro activity) [1, 6]: >220
MRSA (in vitro activity) [2, 5]: >220
RBC Hemolysis (HD50) [3]: >220

Structure (SMILES): CC(C)C[C@H]1NC(=O)[C@H](CCCCN)NC(=O)[C@@H](CO)NC(=O)[C@H](CCCCN)NC(=O)[C@@H](CC(C)C)NC(=O)[C@H](CCCNC(=N)N)NC(=O)[C@@H](CC(C)C)NC(=O)[C@H](CCCNC(=N)N)NC1=O [SEQ ID NO:106, [KSKLRLRL]] (cyclo(K[dL]R[dL]R[dL]K[dS]))
VRE (in vitro activity) ([1]; media c: Brain Heart Infusion (BHI), listed as [KSKLRLRL] (106)): >400
MRSA (in vitro activity) ([2]; media b: cation adjusted Meuller Hinton broth (MHBII), listed as [KSKLRLRL] (106)): >400
RBC Hemolysis (HD50) [3]: >400

S. aureus (MRSA) MIC [2]: 2.5 to 3.8 µg/mL
Structure (SMILES): CC(C)C[C@@H]1NC(=O)[C@@H](Cc2c[nH]c3ccccc23)NC(=O)[C@H](C(C)C)NC(=O)[C@@H](CCCNC(=N)N)NC(=O)[C@H](CCC(N)=O)NC(=O)[C@@H](CCCNC(=N)N)NC(=O)[C@H](Cc2c[nH]c3ccccc23)NC(=O)[C@@H](Cc2c[nH]c3ccccc23)NC1=O [SEQ ID NO:38, QRVWLWWR] (cyclo(Q[dR]V[dW]L[dW]W[dR]))

Structure (SMILES): CC(C)C[C@H]1NC(=O)[C@H](CCCCN)NC(=O)[C@@H](CO)NC(=O)[C@H](CCCCN)NC(=O)[C@@H](CC(C)C)NC(=O)[C@H](Cc2ccccc2)NC(=O)[C@@H](CC(C)C)NC(=O)[C@H](Cc2ccccc2)NC1=O [SEQ ID NO:55, [KSKLFLFL]] (cyclo(F[dL]F[dL]K[dS]K[dL]))
VRE (in vitro activity) ([1]; media b: MHBII): 50
MRSA (in vitro activity) ([2]; media b: cation adjusted Meuller Hinton broth (MHBII), listed as [KSKLFLFL] (55)): 200

S. aureus (MRSA) MIC [2]: 50 µg/mL
Structure (SMILES): CC(C)C[C@@H](NC(=O)[C@H](Cc1c[nH]c2ccccc12)NC(=O)[C@@H](CC(C)C)NC(=O)[C@H](Cc1c[nH]c2ccccc12)NC(=O)[C@@H](CCCCN)NC(=O)[C@H](CCCCN)NC(=O)[C@H](N)CCCCN)C(=O)N[C@@H](Cc1c[nH]c2ccccc12)C(=O)O [SEQ ID NO:24, KKKWLWLW] (H-[dK]K[dK]W[dL]W[dL]W-OH; N-terminus and C-terminus assumed)

S. aureus (MRSA) MIC [2]: 2.5 to 3.8 µg/mL
Structure (SMILES): CC(C)C[C@@H]1NC(=O)[C@@H](Cc2c[nH]c3ccccc23)NC(=O)[C@H](Cc2ccccc2)NC(=O)[C@@H](CCCNC(=N)N)NC(=O)[C@H](CCC(N)=O)NC(=O)[C@@H](CCCNC(=N)N)NC(=O)[C@H](Cc2c[nH]c3ccccc23)NC(=O)[C@@H](Cc2c[nH]c3ccccc23)NC1=O [SEQ ID NO:39, QRFWLWWR] (cyclo(Q[dR]F[dW]L[dW]W[dR]))

Structure (SMILES): CC[C@H](C)[C@@H]1NC(=O)[C@@H](CC(C)C)NC(=O)[C@H](CCCCN)NC(=O)[C@@H](CO)NC(=O)[C@H](CCCCN)NC(=O)[C@@H](CC(C)C)NC(=O)[C@H]([C@@H](C)CC)NC(=O)[C@@H](CC(C)C)NC1=O [SEQ ID NO:58, [KSKLILIL]] (cyclo(I[dL]I[dL]K[dS]K[dL]))
VRE (in vitro activity) ([1]; media b: MHBII): 50
MRSA (in vitro activity) ([2]; media b: cation adjusted Meuller Hinton broth (MHBII), listed as [KSKLILIL] (58)): >200

S. aureus (MRSA) MIC [2]: 60 µg/mL
Structure (SMILES): CC(C)C[C@@H](NC(=O)[C@H](Cc1c[nH]c2ccccc12)NC(=O)[C@@H](CC(C)C)NC(=O)[C@H](Cc1c[nH]c2ccccc12)NC(=O)[C@@H](CCCCN)NC(=O)[C@H](CCCCN)NC(=O)[C@@H](CCCCN)NC(=O)[C@@H](N)Cc1c[nH]c2ccccc12)C(=O)N[C@@H](Cc1c[nH]c2ccccc12)C(=O)O [SEQ ID NO:23, WKKKWLWLW] (H-W[dK]K[dK]W[dL]W[dL]W-OH; N-terminus and C-terminus assumed)

Structure (SMILES): C[C@H](O)[C@H]1NC(=O)[C@H](CCCNC(=N)N)NC(=O)[C@@H](CO)NC(=O)[C@H](CCC(N)=O)NC(=O)[C@@H](Cc2c[nH]cn2)NC(=O)[C@H](CCCCN)NC1=O [SEQ ID NO:131, [KHQSRT]] (cyclo(K[dH]Q[dS]R[dT]))
VRE (in vitro activity) ([1]; media a: AM-3): >200
MRSA (in vitro activity) [2, 4]: >200

S. aureus (MRSA) MIC [2]: 2.5 to 3.8 µg/mL
Structure (SMILES): CC(C)C[C@@H]1NC(=O)[C@@H](Cc2c[nH]c3ccccc23)NC(=O)[C@H](Cc2c[nH]c3ccccc23)NC(=O)[C@@H](CCCNC(=N)N)NC(=O)[C@H](CCC(N)=O)NC(=O)[C@@H](CCCNC(=N)N)NC(=O)[C@H](Cc2c[nH]c3ccccc23)NC(=O)[C@@H](Cc2c[nH]c3ccccc23)NC1=O [SEQ ID NO:36, QRWWLWWR] (cyclo(Q[dR]W[dW]L[dW]W[dR]))
